In ChEMBL document CHEMBL1201862, “PubChem BioAssay data set” (2004) one finds EC50, AC50 and IC50 data, which are given here for 21 compounds.

The source made the active and inactive calls.

System in one test: not listed separately
The experiment in a line: viability of PTEN-deleted HCT116 cells – cell-based, HCT116 PTEN knockout, dose response (AID 1047).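 Also: HCT116 colon tumor cells with PTEN knocked out; cells exposed to compound for 60 hours before readout; potency for loss of cell viability measured by luminescence.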 It is filed as functional.
Consider `OC(CCCN1CCC(O)(c2ccc(Cl)cc2)CC1)c1ccc(F)cc1` (centres undefined) [HYDROXYHALOPERIDOL], for which the EC50 was 29.3 µM (active). On the same count and under the same terms, under `O=C(/C=C/c1ccc(-c2ccccc2[N+](=O)[O-])o1)c1ccccc1` stands 22.5 µM (active); under `COc1ccc(C)cc1C(=O)CCC(=O)Nc1ccccc1N1CCOCC1`, 7.32 µM (active); under `COc1ccc(Oc2ccc(/C=C/C(=O)c3ccc(O)cc3)cc2[N+](=O)[O-])cc1`, 2.53 µM (active).

As to `CCN1C/C(=C\c2cccc([N+](=O)[O-])c2)C(=O)/C(=C/c2cccc([N+](=O)[O-])c2)C1`, the EC50 was 0.117 µM (active).

System in a further test: not listed separately
The experiment in a line: viability of HCT116 lacking mutant beta-catenin – cell-based, human colon tumor, dose response (AID 1045).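 Also: HCT116 colon tumor cells with beta catenin knocked out; cells exposed to compound for 60 hours.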 The format is functional.
In the case of `OC(CCCN1CCC(O)(c2ccc(Cl)cc2)CC1)c1ccc(F)cc1` (centres undefined) [HYDROXYHALOPERIDOL], the EC50 was 28.4 µM (active). Still for that read-out and setting: for `O=C(/C=C/c1ccc(-c2ccccc2[N+](=O)[O-])o1)c1ccccc1` the value was 22.3 µM (active); for `COc1ccc(C)cc1C(=O)CCC(=O)Nc1ccccc1N1CCOCC1`, 5.33 µM (active). The same measure, in the same setting: for `COc1ccc(Oc2ccc(/C=C/C(=O)c3ccc(O)cc3)cc2[N+](=O)[O-])cc1` the value was 2.14 µM (active). As to `CCN1C/C(=C\c2cccc([N+](=O)[O-])c2)C(=O)/C(=C/c2cccc([N+](=O)[O-])c2)C1`, the EC50 is 0.187 µM (active).

The target in the next test is FAD-linked sulfhydryl oxidase ALR (Homo sapiens, UniProt P55789). Briefly: ALR-catalysed DTT oxidation blockers – biochemical, H2O2 detection, luminescence, cherry-pick, dose response (AID 493248).
Chain of FAD-linked sulfhydryl oxidase ALR (P55789 whole entry): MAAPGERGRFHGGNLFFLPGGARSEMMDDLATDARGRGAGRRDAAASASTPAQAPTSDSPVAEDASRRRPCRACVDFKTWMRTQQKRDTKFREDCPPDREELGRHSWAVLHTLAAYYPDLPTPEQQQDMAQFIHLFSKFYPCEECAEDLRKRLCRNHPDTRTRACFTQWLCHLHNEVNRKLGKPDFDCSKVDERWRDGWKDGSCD
On to `COc1cccc(C(=O)Nc2ccccc2N2CCCC2)c1`, for which the AC50 is 1.54 µM (active).

On to `CCN(CC)c1ccc(NC(=O)C2CCCN(S(=O)(=O)c3cccnc3)C2)c(C)c1` (centres undefined), for which the AC50 is 2.3 µM (active).

For the compound `CC1CC(Nc2ccccc2)c2ccccc2N1C(=O)c1ccco1` (centres undefined), the AC50 was 21.1 µM (active). With `COc1ccc2c(c1)NP(=S)(Oc1ccccc1)N2` (centres undefined), the AC50 is 2.02 µM (active). Same read-out and setting: under `O=C(O)c1cc(O)ccc1NC(=O)c1cccc2ccccc12` stands 3.41 µM (active). Still for that read-out and setting: for `CCN(CC)c1ccc(NC(=O)c2nc3nc(C)cc(C(F)F)n3n2)cc1` the value was 1.51 µM (active). Still for that read-out and setting: under `COC(=O)c1ccc(CSc2nc3cc(C)ccc3[nH]2)o1` stands 2.71 µM (active); under `Nc1ccc(CCc2ccc(N)cc2)cc1`, 1.91 µM (active); under `COc1ccc(N2CCN(C(CNS(C)(=O)=O)c3ccco3)CC2)cc1` (centres undefined), 4.67 µM (active).

For a further test, the target named is Heat shock protein HSP 90-alpha (Homo sapiens, UniProt P07900).
Experiment: not given
It is filed as functional, organism-based.
With `O=C(OCC(=O)N1CCN(C(=O)c2ccco2)CC1)c1cc(-c2ccccc2)nc2ccccc12`, the AC50 was 4.24 µM (active). For the compound `Cc1nn(-c2ccc([N+](=O)[O-])cc2)c(O)c1/C=N/CCN1CCN(C(=O)c2ccccc2F)CC1`, the concentration at half-maximal activity (AC50) is 5.72 µM (active). Regarding `CCN1C/C(=C\c2cccc([N+](=O)[O-])c2)C(=O)/C(=C/c2cccc([N+](=O)[O-])c2)C1`, the AC50 was 8.11 µM (active).

A further test deals with T1, Fatty acid synthase (Homo sapiens, UniProt P49327). The experiment in a line: inhibition of human FAS-TE enzyme activity – biochemical, endpoint fluorescence intensity, uHTS hits, dose response (AID 624327).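 Also: fluorescence from hydrolysis of an O-methyl fluorescein acyl ester substrate by the enzyme.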 The format is functional.
T1 sequence (P49327 whole entry): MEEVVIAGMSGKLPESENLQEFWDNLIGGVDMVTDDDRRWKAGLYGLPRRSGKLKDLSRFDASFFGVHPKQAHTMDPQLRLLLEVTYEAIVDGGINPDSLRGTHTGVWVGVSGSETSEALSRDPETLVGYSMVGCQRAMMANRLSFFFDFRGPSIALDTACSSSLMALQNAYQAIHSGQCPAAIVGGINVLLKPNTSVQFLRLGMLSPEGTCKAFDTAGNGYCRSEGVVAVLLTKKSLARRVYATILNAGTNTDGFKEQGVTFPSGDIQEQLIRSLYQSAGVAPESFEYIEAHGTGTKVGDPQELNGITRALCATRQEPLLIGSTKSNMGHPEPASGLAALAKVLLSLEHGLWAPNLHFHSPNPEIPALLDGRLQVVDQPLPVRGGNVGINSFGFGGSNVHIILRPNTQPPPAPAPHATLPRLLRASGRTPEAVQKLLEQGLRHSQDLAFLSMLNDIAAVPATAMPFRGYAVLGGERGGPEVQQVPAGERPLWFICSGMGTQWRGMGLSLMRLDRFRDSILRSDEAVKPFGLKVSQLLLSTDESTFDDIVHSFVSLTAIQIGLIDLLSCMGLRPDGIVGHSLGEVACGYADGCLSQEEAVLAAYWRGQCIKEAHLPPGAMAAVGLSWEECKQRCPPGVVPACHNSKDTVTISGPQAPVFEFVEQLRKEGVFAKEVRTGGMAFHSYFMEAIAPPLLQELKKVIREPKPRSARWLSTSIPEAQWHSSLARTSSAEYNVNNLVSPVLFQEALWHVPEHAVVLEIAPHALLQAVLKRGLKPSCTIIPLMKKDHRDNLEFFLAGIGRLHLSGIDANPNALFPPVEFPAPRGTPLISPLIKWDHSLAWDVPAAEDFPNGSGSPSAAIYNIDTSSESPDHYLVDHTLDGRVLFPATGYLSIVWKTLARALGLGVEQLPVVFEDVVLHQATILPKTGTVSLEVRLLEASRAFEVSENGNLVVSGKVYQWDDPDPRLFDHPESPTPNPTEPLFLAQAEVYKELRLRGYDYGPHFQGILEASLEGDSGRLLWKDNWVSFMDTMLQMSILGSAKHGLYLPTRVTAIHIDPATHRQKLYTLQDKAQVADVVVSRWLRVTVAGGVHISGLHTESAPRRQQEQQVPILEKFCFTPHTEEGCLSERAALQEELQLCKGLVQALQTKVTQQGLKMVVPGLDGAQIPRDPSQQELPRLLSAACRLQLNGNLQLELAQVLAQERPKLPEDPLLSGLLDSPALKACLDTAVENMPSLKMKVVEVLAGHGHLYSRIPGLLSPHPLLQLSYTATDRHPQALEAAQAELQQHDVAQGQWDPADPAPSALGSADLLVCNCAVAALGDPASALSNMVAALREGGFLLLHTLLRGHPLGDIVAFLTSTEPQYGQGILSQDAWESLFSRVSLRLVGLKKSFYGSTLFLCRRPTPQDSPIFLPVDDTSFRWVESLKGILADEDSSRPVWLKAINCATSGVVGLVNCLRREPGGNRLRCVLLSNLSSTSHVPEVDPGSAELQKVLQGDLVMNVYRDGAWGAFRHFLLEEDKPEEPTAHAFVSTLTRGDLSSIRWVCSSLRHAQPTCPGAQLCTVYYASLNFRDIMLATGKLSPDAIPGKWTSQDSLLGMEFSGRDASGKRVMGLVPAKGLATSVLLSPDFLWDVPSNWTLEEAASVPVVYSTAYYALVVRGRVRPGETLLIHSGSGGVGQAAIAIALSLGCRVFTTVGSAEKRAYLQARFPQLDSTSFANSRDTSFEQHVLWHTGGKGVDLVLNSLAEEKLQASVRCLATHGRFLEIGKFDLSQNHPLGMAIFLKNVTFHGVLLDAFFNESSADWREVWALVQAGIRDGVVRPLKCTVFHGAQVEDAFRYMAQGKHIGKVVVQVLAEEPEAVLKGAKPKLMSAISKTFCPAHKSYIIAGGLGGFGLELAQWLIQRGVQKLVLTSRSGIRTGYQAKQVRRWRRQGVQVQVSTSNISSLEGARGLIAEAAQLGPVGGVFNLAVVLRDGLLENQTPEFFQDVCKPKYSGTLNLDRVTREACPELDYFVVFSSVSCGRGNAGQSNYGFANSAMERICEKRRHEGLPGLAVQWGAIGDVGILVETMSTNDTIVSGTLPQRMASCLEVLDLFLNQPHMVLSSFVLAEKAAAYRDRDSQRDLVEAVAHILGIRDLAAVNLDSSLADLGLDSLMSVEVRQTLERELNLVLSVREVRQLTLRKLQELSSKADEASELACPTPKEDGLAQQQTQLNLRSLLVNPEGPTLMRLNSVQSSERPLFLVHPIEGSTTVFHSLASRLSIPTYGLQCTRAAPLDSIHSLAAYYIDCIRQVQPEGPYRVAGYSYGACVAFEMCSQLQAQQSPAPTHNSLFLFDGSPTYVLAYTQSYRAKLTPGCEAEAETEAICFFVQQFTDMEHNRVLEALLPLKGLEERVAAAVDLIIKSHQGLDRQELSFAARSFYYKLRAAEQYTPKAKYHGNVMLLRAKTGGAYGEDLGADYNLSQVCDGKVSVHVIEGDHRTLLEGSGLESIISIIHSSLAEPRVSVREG
As to `CC(NC(=O)c1ccc([N+](=O)[O-])cc1Cl)C1CC2CCC1C2` (centres undefined), the IC50 was 9.39 µM (active). Turning to `COc1ccc([N+](=O)[O-])cc1NC(=O)COC(=O)/C=C/c1ccco1`, the IC50 was 5.11 µM (active).

In another test the target is T1, Fatty acid synthase. Briefly: inhibition of human FAS-TE enzyme activity – biochemical, kinetic fluorescence intensity, dose response (AID 624326).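 Also: rate of fluorescence rise from hydrolysis of a fluorogenic O-methyl fluorescein ester substrate.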 It is filed as functional.
`CC(NC(=O)c1ccc([N+](=O)[O-])cc1Cl)C1CC2CCC1C2` (centres undefined): the IC50 is 11.1 µM (active). Same read-out and setting: under `COc1ccc([N+](=O)[O-])cc1NC(=O)COC(=O)/C=C/c1ccco1` stands 8.49 µM (active). On the same count and under the same terms, under `O=S(=O)(c1ccc(-c2csc(-c3cccnc3)n2)cc1)N1CCOCC1` stands 4.92 µM (active).

The next test deals with Paired box protein Pax-8 (Homo sapiens, UniProt Q06710). The experiment in a line: PAX8 transcriptional activity inhibition in RMG-I – RMG-I cells, luciferase, cherry-pick, dose response (AID 687027).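 Also: luciferase reporter driven by Pax8 target thyroperoxidase promoter measured by SteadyGlo luminescence.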 The format is functional, cell-based.
Chain of Paired box protein Pax-8 (Q06710 whole entry): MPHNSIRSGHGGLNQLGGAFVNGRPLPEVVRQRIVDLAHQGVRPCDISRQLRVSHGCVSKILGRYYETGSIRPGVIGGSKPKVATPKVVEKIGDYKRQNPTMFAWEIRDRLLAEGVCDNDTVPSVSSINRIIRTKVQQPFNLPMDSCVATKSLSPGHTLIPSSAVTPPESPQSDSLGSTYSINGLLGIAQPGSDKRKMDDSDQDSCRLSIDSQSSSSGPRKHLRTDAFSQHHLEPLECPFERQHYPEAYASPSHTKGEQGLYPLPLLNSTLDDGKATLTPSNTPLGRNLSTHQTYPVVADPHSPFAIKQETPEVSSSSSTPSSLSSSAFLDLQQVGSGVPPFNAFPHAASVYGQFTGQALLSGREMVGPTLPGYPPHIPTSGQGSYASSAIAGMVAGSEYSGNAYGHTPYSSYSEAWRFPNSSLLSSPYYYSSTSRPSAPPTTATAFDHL
As to `CC(C1CC1)N(Cc1ccccc1)C(S)=Nc1cccc(C(F)(F)F)c1` (centres undefined), the AC50 was 33.2 µM (active). Same read-out and setting: for `O=S(=O)(c1ccc(F)cc1)N1C[C@H]2[C@@H](c3ccccc31)[C@H](CO)N2Cc1ccccc1Cl` the value was 11 µM (active).
